From US20260258004A1, “CRYSTALLINE FORMS OF (6S)-5-[4'-FLUORO-2-(TRIFLUOROMETHYL)BIPHENYL-4-YL]-6-METHYL-3,6- DIHYDRO-2H-l,3,4-OXADIAZIN-2-ONE” (Bayer Aktiengesellschaft, priority 2022, published 2026)

Assay: Particle size distribution by laser diffraction (Malvern Panalytical Mastersizer 3000, Fraunhofer)
Type: physicochemical
Description: The particle size distribution was measured by laser diffraction using the Malvern Panalytical Mastersizer 3000.
The samples are again taken from example 1.6 (probe 1) and example 1.5 (probe 2), the same as used in example 4.
The sample to be analyzed is dispersed in 1 drop of Tween 80 the sample is processed according to ISO13320.
Laser diffraction is an often-used method for determination the particle size of dispersed solid materials. A widened laser beam illuminates a cuvette which contains part of the particles. By diffraction on the particles a characteristic pattern can be mapped on the detector. The resulting diffraction image is the additive overlaying of diffraction images of all particles.
Besides the mentioned detector two additional detectors are mounted in order to detect diffraction light in forward direction (FA1,9), in wide angle (LA1,2) and in back direction (BS1,2). The turbidity of the sample is measured by an extinction sensor. This is necessary to ensure a low particle concentration which is necessary to avoid wrong results by multiple diffraction of light at several particles.
The cuvette used was a wet unit where the suspension is pumped in a closed circuit with a dispersing unit that ensures a separation of single particles by shear forces.
The measurement range of the Malvern 3000 covers a particle size from 1 mm (2 mm) down to 20 nm
The calculation of the particle size distribution from the diffraction patterns was done on basis of theory of Fraunhofer.
This assumption is valid for particle sizes of 10 to 50 μm and above. For smaller particles the light scattering of the particle itself due to optical transparency must be considered which is done in the Mie-theory (not used for our probes). Precondition of the application of the Mie-theory is the knowledge of the refractive and absorption index of the dispersed solids.
Q3 is the cumulative volume distribution, e.g. D50=Q(50%) indicates 50% of the volume part of the sample is smaller than particle size of 50 μm.
The particle size is expressed as an equivalent diameter used in the method recommended by the Malvern Analysis Program and as described in ISO13320.

[1] = without ultrasound (US), listed as Probe 2

C[C@@H]1OC(=O)NN=C1c1ccc(-c2ccc(F)cc2)c(C(F)(F)F)c1 [polymorph C, (6S)-5-[4′-Fluoro-2-(trifluoromethyl)biphenyl-4-yl]-6-methyl-3,6-dihydro-2H-1,3,4-oxadiazin-2-one]
difference between Q3[50] of untreated sample and sample treated 300 s with ultrasound: significantly smaller
D(10) (300 s US, listed as Probe2): 14.5 μm
D(50) (300 s US, listed as Probe2): 57.3 μm
D(90) (300 s US, listed as Probe2): 170 μm
Cumulative volume distribution Q (particle size D 0.01 μm, 300 s US): 0%
Cumulative volume distribution Q (particle size D 0.01 μm, without US): 0%
Cumulative volume distribution Q (particle size D 0.0114 μm, 300 s US): 0%
Cumulative volume distribution Q (particle size D 0.0114 μm, without US): 0%
Cumulative volume distribution Q (particle size D 0.0129 μm, 300 s US): 0%
Cumulative volume distribution Q (particle size D 0.0129 μm, without US): 0%
Cumulative volume distribution Q (particle size D 0.0147 μm, 300 s US): 0%
Cumulative volume distribution Q (particle size D 0.0147 μm, without US): 0%
Cumulative volume distribution Q (particle size D 0.0167 μm, 300 s US): 0%
Cumulative volume distribution Q (particle size D 0.0167 μm, without US): 0%
Cumulative volume distribution Q (particle size D 0.0189 μm, 300 s US): 0%
Cumulative volume distribution Q (particle size D 0.0189 μm, without US): 0%
Cumulative volume distribution Q (particle size D 0.0215 μm, 300 s US): 0%
Cumulative volume distribution Q (particle size D 0.0215 μm, without US): 0%
Cumulative volume distribution Q (particle size D 0.0244 μm, 300 s US): 0%
Cumulative volume distribution Q (particle size D 0.0244 μm, without US): 0%
Cumulative volume distribution Q (particle size D 0.0278 μm, 300 s US): 0%
Cumulative volume distribution Q (particle size D 0.0278 μm, without US): 0%
Cumulative volume distribution Q (particle size D 0.0315 μm, 300 s US): 0%
Cumulative volume distribution Q (particle size D 0.0315 μm, without US): 0%
Cumulative volume distribution Q (particle size D 0.0358 μm, 300 s US): 0%
Cumulative volume distribution Q (particle size D 0.0358 μm, without US): 0%
Cumulative volume distribution Q (particle size D 0.0407 μm, 300 s US): 0%
Cumulative volume distribution Q (particle size D 0.0407 μm, without US): 0%
Cumulative volume distribution Q (particle size D 756 μm, 300 s US): 100%
Cumulative volume distribution Q (particle size D 756 μm, without US, listed as Probe 2): 99.65%
Cumulative volume distribution Q (particle size D 859 μm, 300 s US): 100%
Cumulative volume distribution Q (particle size D 859 μm, without US, listed as Probe 2): 99.9%
Cumulative volume distribution Q (particle size D 976 μm, 300 s US): 100%
Cumulative volume distribution Q (particle size D 976 μm, without US, listed as Probe 2): 100%
Cumulative volume distribution Q (particle size D 1110 μm, 300 s US): 100%
Cumulative volume distribution Q (particle size D 1110 μm, without US): 100%
Cumulative volume distribution Q (particle size D 1260 μm, 300 s US): 100%
Cumulative volume distribution Q (particle size D 1260 μm, without US): 100%
Cumulative volume distribution Q (particle size D 1430 μm, 300 s US): 100%
Cumulative volume distribution Q (particle size D 1430 μm, without US): 100%
Cumulative volume distribution Q (particle size D 1630 μm, 300 s US): 100%
Cumulative volume distribution Q (particle size D 1630 μm, without US): 100%
Cumulative volume distribution Q (particle size D 1850 μm, 300 s US): 100%
Cumulative volume distribution Q (particle size D 1850 μm, without US): 100%
Cumulative volume distribution Q (particle size D 2100 μm, 300 s US): 100%
Cumulative volume distribution Q (particle size D 2100 μm, without US): 100%
Cumulative volume distribution Q (particle size D 2390 μm, 300 s US): 100%
Cumulative volume distribution Q (particle size D 2390 μm, without US): 100%
Cumulative volume distribution Q (particle size D 2710 μm, 300 s US): 100%
Cumulative volume distribution Q (particle size D 2710 μm, without US): 100%
Cumulative volume distribution Q (particle size D 3080 μm, 300 s US): 100%
Cumulative volume distribution Q (particle size D 3080 μm, without US): 100%
Cumulative volume distribution Q (particle size D 3500 μm, 300 s US): 100%
Cumulative volume distribution Q (particle size D 3500 μm, without US): 100%
robustness of crystals (ultrasound treatment, compared to polymorph A): more robust
D(10) [1]: 69.1 μm
D(50) [1]: 179 μm
D(90) [1]: 380 μm
